Experimental findings from patent publication US20230066011A1, “PYRROLOPYRIMIDINE DERIVATIVE, AND PHARMACEUTICAL COMPOSITION FOR PREVENTING OR TREATING PROTEIN KINASE-RELATED DISEASE COMPRISING SAME AS ACTIVE INGREDIENT” (VORONOI CO., LTD., priority 2019, published 2023) are described below.

One assay addresses LRRK2 (G2019S) (Homo sapiens, UniProt Q5S007, G2019S). The experiment in a line: LRRK2 G2019S enzyme inhibition, ADP-Glo kinase assay. It counts as biochemical. Also noted: purchased SignalChem L10-12GG. The conditions noted are these: ATP 25 μM. In a few lines: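 IC50 derived from luminescent ADP-Glo readout against untreated solvent control, twelve final compound concentrations from 50 μM downward. Reaction: recombinant human LRRK2 G2019S enzyme, 25 μM ATP, substrate, pH 7.4 Tris buffer with MgCl2/BSA/DTT, 25° C. for 2 hours.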

The target in a further assay is T1, human GST-CLK1 (Homo sapiens, UniProt P49759).
T1 construct: purified human GST-CLK1 (129-end, SignalChem) enzyme; purchased SignalChem
Nature of the assay: GST-CLK1 enzyme inhibition, ADP-Glo kinase assay. It counts as biochemical. Particulars: ATP 10 μM, GST-CLK1 129-end. In a few lines:
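ADP-Glo luminescence read-out, relative to untreated solvent control, gave IC50 (nM) from triplicate data sets. Reactions ran an hour at 25° C with 3 ng GST-CLK1 (residues 129-end), 10 μM ATP and specific substrate in Tris-HCl pH 7.4 buffer with MgCl2, BSA and DTT.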

A further assay concerns human DYRK1A and tau. The experiment in a line: Inhibition of tau phosphorylation, ClariCELL Kinase Cell-Based Assay, HEK 293 cells expressing human DYRK1A and tau. Particulars: for inhibition at 1 µM: HEK293, read-out: % inhibition at 1 uM, tau phosphorylation, compound 1 uM; for inhibition at 0.25 µM / inhibition at 0.5 µM: HEK293, tau phosphorylation; for inhibition at 0.25 µM: compound 0.25 uM; for inhibition at 0.5 µM: compound 0.5 uM. On the procedure: An inhibitory effect on tau phosphorylation was determined using the ClariCELL™ Kinase Cell-Based Assay service (commercially available from CamaBio USA, Inc.). Human embryonic kidney (HEK 293) cells temporarily expressing human DYRK1A and tau were exposed to the compound, and then lysed to release cell proteins. In this case, the released tau was captured on a plate, and a degree of phosphorylation was quantified by ELISA using a tau phosphorylation-specific antibody.

The next assay addresses T2, human GST-DYRK1A (Homo sapiens, UniProt Q13627).
T2 construct: purified human GST-DYRK1A (full length, Thermo Scientifics) enzyme; purchased Thermo Scientifics
The experiment in a line: GST-DYRK1A enzyme inhibition, ADP-Glo kinase assay. It counts as biochemical. The conditions noted are these: ATP 10 μM, GST-DYRK1A full length, read-out: DYRK1 IC50. In a few lines:
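Full-length enzyme (10 ng) was incubated with 10 μM ATP and a specific substrate for 1 h at 25 °C in 40 mM Tris-HCl pH 7.4, 20 mM MgCl2, 0.5 mg/mL BSA, 50 μM DTT. Luminescence was read against a solvent control, and IC50 values were derived from 3 data sets.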

A further assay concerns the target LRRK2 (Homo sapiens, UniProt Q5S007). The experiment in a line: LRRK2 enzyme inhibition, ADP-Glo kinase assay. The class given is biochemical. Also noted: purchased Invitrogen PR8604B. Particulars: ATP 10 μM. In a few lines:
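ADP-Glo luminescent read-out of ADP formed by purified human LRRK2 enzyme (25 ng), 10 μM ATP, 0.2 μg substrate, 25° C for 2 h, Tris-HCl pH 7.4 buffer with MgCl2, BSA, DTT. Inhibition versus untreated solvent control over twelve final concentrations (50 μM downward) gives IC50.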

Chain of LRRK2 (Q5S007 970-2527 limits assumed): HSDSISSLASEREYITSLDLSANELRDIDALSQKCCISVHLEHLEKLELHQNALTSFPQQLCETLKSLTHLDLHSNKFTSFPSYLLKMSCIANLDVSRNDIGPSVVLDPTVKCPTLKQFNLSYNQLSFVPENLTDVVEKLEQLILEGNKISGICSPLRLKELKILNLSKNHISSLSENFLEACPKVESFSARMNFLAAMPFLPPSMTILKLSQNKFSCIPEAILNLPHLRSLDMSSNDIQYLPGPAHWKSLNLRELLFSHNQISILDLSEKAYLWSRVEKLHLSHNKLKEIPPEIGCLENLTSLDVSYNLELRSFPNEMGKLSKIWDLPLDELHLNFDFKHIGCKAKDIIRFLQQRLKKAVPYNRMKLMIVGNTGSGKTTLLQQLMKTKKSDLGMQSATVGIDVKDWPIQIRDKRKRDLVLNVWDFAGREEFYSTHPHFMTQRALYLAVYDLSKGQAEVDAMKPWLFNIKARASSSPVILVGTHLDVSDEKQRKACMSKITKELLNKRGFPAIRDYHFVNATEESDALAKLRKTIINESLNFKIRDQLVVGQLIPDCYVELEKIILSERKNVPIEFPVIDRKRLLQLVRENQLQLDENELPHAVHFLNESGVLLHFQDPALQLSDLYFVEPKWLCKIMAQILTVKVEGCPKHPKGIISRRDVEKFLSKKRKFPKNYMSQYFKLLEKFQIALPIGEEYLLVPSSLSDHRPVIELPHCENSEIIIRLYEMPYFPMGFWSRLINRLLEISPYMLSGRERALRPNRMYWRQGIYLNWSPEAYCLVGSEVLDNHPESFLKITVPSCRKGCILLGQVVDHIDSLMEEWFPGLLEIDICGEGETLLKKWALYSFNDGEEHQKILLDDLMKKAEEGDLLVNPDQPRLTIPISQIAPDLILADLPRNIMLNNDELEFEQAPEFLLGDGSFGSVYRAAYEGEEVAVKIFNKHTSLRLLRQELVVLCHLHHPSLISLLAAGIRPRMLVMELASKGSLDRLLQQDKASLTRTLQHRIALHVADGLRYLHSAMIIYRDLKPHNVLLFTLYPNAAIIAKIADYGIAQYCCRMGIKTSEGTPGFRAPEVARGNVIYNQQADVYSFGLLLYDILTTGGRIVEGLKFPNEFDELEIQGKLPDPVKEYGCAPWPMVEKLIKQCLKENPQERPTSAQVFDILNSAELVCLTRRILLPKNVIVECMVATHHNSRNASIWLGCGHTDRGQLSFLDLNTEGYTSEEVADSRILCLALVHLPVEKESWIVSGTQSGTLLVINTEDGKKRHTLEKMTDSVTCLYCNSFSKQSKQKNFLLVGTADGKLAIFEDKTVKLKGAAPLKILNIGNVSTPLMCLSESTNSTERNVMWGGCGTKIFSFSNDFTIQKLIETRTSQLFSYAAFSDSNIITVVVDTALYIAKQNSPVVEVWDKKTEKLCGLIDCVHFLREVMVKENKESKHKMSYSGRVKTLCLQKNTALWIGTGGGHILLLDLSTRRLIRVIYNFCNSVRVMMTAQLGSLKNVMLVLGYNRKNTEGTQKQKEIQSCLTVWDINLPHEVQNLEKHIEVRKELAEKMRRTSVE
T1 sequence (P49759 129-484 limits assumed): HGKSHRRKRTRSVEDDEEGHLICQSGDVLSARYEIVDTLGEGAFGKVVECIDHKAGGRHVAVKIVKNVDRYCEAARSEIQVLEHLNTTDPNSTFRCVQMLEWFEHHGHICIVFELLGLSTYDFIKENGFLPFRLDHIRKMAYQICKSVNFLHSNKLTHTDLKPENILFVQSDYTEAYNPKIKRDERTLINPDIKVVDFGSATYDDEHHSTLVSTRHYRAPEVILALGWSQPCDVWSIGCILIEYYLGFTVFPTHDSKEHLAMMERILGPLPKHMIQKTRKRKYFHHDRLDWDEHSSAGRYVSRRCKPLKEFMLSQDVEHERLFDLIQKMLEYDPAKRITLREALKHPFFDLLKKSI
Chain of LRRK2 (G2019S) (Q5S007 970-2527 G2019S limits assumed): as the sequence (Q5S007 970-2527 limits assumed) above, with G1050S counted along it

At LRRK2 (G2019S), `CCCCNc1nc(Nc2ccc(C(=O)N3CCC(N4CCOCC4)CC3)c3c2OCC3)nc2[nH]cc(C(F)(F)F)c12` [Example 466, (7-((4-(butylamino)-5-(trifluoromethyl)-7H-pyrrolo[2,3-d]pyrimidin-2-yl)amino)-2,3-dihydrobenzo-furan-4-yl)(4-morpholino-piperidin-1-yl)methanone] showed an IC50 below 100 nM. The half-maximal inhibitory concentration (IC50) at human GST-CLK1 is 301 to 1000 nM. In the assay with human DYRK1A and tau, the inhibition at 1 µM was found to be 71.3%, the inhibition at 0.25 µM is 9.5% and the inhibition at 0.5 µM amounted to 39.2%. Further, the half-maximal inhibitory concentration (IC50) on human GST-DYRK1A is 301 to 1000 nM.
Take `N#Cc1c[nH]c2nc(Nc3ccc(C(=O)N4CCN(C5COC5)CC4)c4c3OCCO4)nc(N[C@H]3CCOC3)c12` [Example 315, (S)-2-((8-(4-(oxetan-3-yl)piperazine-1-carbonyl)-2,3-dihydrobenzo[b] [1,4]dioxin-5-yl)amino)-4-((tetrahydrofuran-3-yl)amino)-7H-pyrrolo[2,3-d]pyrimidine-5-carbonitrile]: the IC50 on human GST-CLK1 is below 100 nM. Moreover, in the assay with human DYRK1A and tau, the inhibition at 1 µM is 16.6%, the inhibition at 0.25 µM is -1.8% and the inhibition at 0.5 µM amounted to 8.4%. The concentration for half-maximal inhibition (IC50) on human GST-DYRK1A lay within 301 to 1000 nM.
`N#Cc1c[nH]c2nc(Nc3ccc(C(=O)N4CCC(N5CCOCC5)CC4)c4c3OCC4)nc(NCC3CCCC3)c12` [Example 343, 4-((cyclo-pentylmeth-yl)amino)-2-((4-(4-morpholinopiperidine-- 1-carbonyl)-2,3-dihydro-benzofuran-7-yl)amino)-7H-pyrrolo[2,3-d]pyrimidine-5-carbonitrile] showed an IC50 against LRRK2 (G2019S) below 100 nM. On human GST-CLK1, the concentration for half-maximal inhibition (IC50) fell in the range of 301 to 1000 nM. In addition, in the assay on human DYRK1A and tau, the inhibition at 1 µM turned out to be 52%, the inhibition at 0.25 µM was -44.3% and the inhibition at 0.5 µM came to 16.7%. In addition, on human GST-DYRK1A, the half-inhibitory concentration (IC50) was 301 to 1000 nM.
`O=C(c1ccc(Nc2nc(NCC3CCCC3)c3c(C(F)(F)F)c[nH]c3n2)c2c1CCO2)N1CCC(N2CCOCC2)CC1` [Example 464, (7-((4-((cyclo-pentylmeth-yl)amino)-5-(trifluoromethyl)-7H-pyrrolo[2,3-d]pyrimidin-2-yl)amino)-2,3-dihydrobenzo-furan-4-yl)(4-morpholino-piperidin-1-yl)methanone] yielded an IC50 against LRRK2 (G2019S) below 100 nM. At human GST-CLK1, this molecule came in with an IC50 of 301 to 1000 nM. For the same molecule, in the assay with human DYRK1A and tau, the inhibition at 1 µM was determined as 44.2%, the inhibition at 0.25 µM was 11.5% and the inhibition at 0.5 µM turned out to be 12.4%. Moreover, the concentration for half-maximal inhibition (IC50) at human GST-DYRK1A lay within 301 to 1000 nM.
As to `CNc1nc(Nc2ccc(C(=O)N3CCOCC3)c3c2OCC3)nc2[nH]cc(C(F)(F)F)c12` [Example 218, (7-((4-(methylamino)-5-(trifluoromethyl)-7H-pyrrolo[2,3-d]pyrimidin-2-yl)amino)-2,3-dihydrobenzofuran-4-yl)(morpholino)methanone], the half-maximal inhibitory concentration (IC50) on human GST-CLK1 was below 100 nM. Besides, in the assay with human DYRK1A and tau, the inhibition at 1 µM stood at 99.4%, the inhibition at 0.25 µM is 57.7% and the inhibition at 0.5 µM was found to be 84.3%. The half-maximal inhibitory concentration (IC50) on human GST-DYRK1A was below 100 nM.
As for `CC(C)Nc1nc(Nc2ccc(C(=O)N3CCN(C4COC4)CC3)c3c2OCCO3)nc2[nH]cc(C(F)(F)F)c12` [Example 441, (8-((4-(isopropylamino)-5-(trifluoromethyl)-7H-pyrrolo[2,3-d]pyrimidin-2-yl)amino)-2,3-dihydrobenzo[b] [1,4]dioxin-5-yl) (4-(oxetan-3-yl)piperazin-1-yl)methanone], the IC50 against human GST-CLK1 was below 100 nM. In the assay on human DYRK1A and tau, the inhibition at 1 µM came out at 75.5%, the inhibition at 0.25 µM turned out to be 19.6% and the inhibition at 0.5 µM was found to be 57.4%. For the same molecule, on human GST-DYRK1A, the half-inhibitory concentration (IC50) was 101 to 300 nM.
The corresponding values for `CCNc1nc(Nc2ccc(C(=O)N3CC(CO)(CO)C3)c3c2OCCO3)nc2[nH]cc(C#N)c12` [Example 326, 2-((8-(3,3-bis(hydroxy-methyl)azetidine-1-carbonyl)-2,3-dihydrobenzo[b] [1,4]dioxin-5-yl)amino)-4-(ethylamino)-7H-pyrrolo[2,3-d]pyrimidine-5-carbonitrile] are below 100 nM, -1.8%, -0.6%, 13.6% and 101 to 300 nM.
The molecule `CNc1nc(Nc2ccc(C(=O)N3CC(CO)(CO)C3)c3c2OCCO3)nc2[nH]cc(C#N)c12` [Example 325, 2-((8-(3,3-bis(hydroxy-methyl)azetidine-1-carbonyl)-2,3-dihydrobenzo[b] [1,4]dioxin-5-yl)amino)-4-(methylamino)-7H-pyrrolo[2,3-d]pyrimidine-5-carbonitrile] yielded a half-inhibitory concentration (IC50) against human GST-CLK1 below 100 nM. Also, in the assay with human DYRK1A and tau, the inhibition at 1 µM is 1.9%, the inhibition at 0.25 µM worked out at 6.3% and the inhibition at 0.5 µM worked out at 13.5%. At human GST-DYRK1A, the half-maximal inhibitory concentration (IC50) lay within 101 to 300 nM.
On to `COc1cc(S(C)(=O)=O)ccc1Nc1nc(NC(C)C)c2c(C#N)c[nH]c2n1` [Example 101, 4-(isopropylamino)-2-((2-methoxy-4-(methylsulfonyl)phenyl)amino)-7H-pyrrolo[2,3-d]pyrimidine-5-carbonitrile], for which the IC50 against LRRK2 (G2019S) is below 100 nM; against human GST-CLK1 it was 301 to 1000 nM; at LRRK2, below 100 nM; at human GST-DYRK1A, 301 to 1000 nM.
`N#Cc1c[nH]c2nc(Nc3ccc(C(=O)N4CCOCC4)c4c3OCCO4)nc(NC3COC3)c12` [Example 135, 2-((8-(morpholine-4-carbonyl)-2,3-dihydrobenzo[b][1,4]dioxin-5-yl)amino)-4-(oxetan-3-ylamino)-7H-pyrrolo[2,3-d]pyrimdine-5-carbonitrile]: the IC50 on LRRK2 (G2019S), on human GST-CLK1, against LRRK2 and on human GST-DYRK1A was 301 to 1000 nM in each case.
As for `CCCNc1nc(Nc2ccc(S(C)(=O)=O)cc2OC)nc2[nH]cc(C(F)(F)F)c12` [Example 181, N^2-(2-methoxy-4-(methylsulfonyl)phenyl)-N^4-propyl-5-(trifluoromethyl)-7H-pyrrolo[2,3-d]pyrimidine-2,4-diamine], the IC50 was 101 to 300 nM against LRRK2 (G2019S), 301 to 1000 nM against human GST-CLK1, 101 to 300 nM against LRRK2 and 301 to 1000 nM on human GST-DYRK1A.
`COCC(C)(C)Nc1nc(Nc2ccc(C(=O)N3CCOCC3)c3c2OCCO3)nc2[nH]cc(C(F)(F)F)c12` [Example 178, (8-((4-((1-methoxy-2-methylpropan-2-yl)amino)-5-(trifluoromethyl)-7H-pyrrolo[2,3-d]pyrimidin-2-yl)amino)-2,3-dihydrobenzo[b][1,4]dioxin-5-yl)(morpholino)methanone]: the IC50 at LRRK2 (G2019S) was below 100 nM; on human GST-CLK1 it was 301 to 1000 nM; on LRRK2, below 100 nM; at human GST-DYRK1A, 301 to 1000 nM.
As to `COc1cc(S(C)(=O)=O)ccc1Nc1nc(NC2CC2)c2c(C#N)c[nH]c2n1` [Example 104, 4-(cyclopropylamino)-2-((2-methoxy-4-(methylsulfonyl)phenyl)amino)-7H-pyrrolo[2,3-d]pyrimidine-5-carbonitrile], the IC50 against LRRK2 (G2019S) is below 100 nM; against human GST-CLK1 it was 101 to 300 nM; against LRRK2, below 100 nM; on human GST-DYRK1A it was 301 to 1000 nM.
`N#Cc1c[nH]c2nc(Nc3ccc(C(=O)N4CCN(C5COC5)CC4)c4c3OCCO4)nc(NC3CCOCC3)c12` [Example 316, 2-((8-(4-(oxetan-3-yl)piperazine-1-carbonyl)-2,3-dihydrobenzo[b] [1,4]dioxin-5-yl)amino)-4-((tetrahydro-2H-pyran-4-yl)amino)-7H-pyrrolo[2,3-d]pyrimidine-5-carbonitrile] returned a concentration for half-maximal inhibition (IC50) at human GST-CLK1 below 100 nM. In addition, in the assay on human DYRK1A and tau, the inhibition at 1 µM came to 15.8%, the inhibition at 0.25 µM was found to be 2.3% and the inhibition at 0.5 µM was determined as 8.3%. For the same molecule, the IC50 on human GST-DYRK1A was 301 to 1000 nM.
As for `COc1cc(S(C)(=O)=O)ccc1Nc1nc(NC2CCCCC2)c2c(C#N)c[nH]c2n1` [Example 107, 4-(cyclohexylamino)-2-((2-methoxy-4-(methylsulfonyl)phenyl)amino)-7H-pyrrolo[2,3-d]pyrimidine-5-carbonitrile], the half-inhibitory concentration (IC50) against LRRK2 (G2019S), on human GST-CLK1, on LRRK2 and on human GST-DYRK1A was 301 to 1000 nM each time.
